According to US9884037B2, “Pharmaceutical composition containing 8 triglycerides, and preparations and use thereof” (ZHEJIANG KANGLAITE GROUP CO., LTD., priority 2014, dated 2018):
In brackets after ≈: the same amount, converted by molar mass.

What was measured:
[1] = tested on: Bcap-37 (human breast cancer cells); test: Inhibition on human tumor cell lines in MTT method in vitro; type: cell-based; conditions: Bcap37, Bcap-37, MTT, 48 h
Description: (§1) Experimental Materials and the Preparation Thereof: • (1) Cell lines: PANC-1 (human pancreatic cancer cells), SKOV3 (human ovarian cancer cells), MCF-7 (human breast cancer cells), Bcap-37 (human breast cancer cells), SMMC-7721 (human hepatic cancer cells), HepG-2 (human hepatic cancer cells), A549 (human lung cancer cells) and H460 (human lung cancer cells), storaged and passaged maintainably in Research and Evaluation Center for Pharmacology, Shanghai Institute of Pharmaceutical Industry; • (2) DMEM complete medium supplied with 10% newborn calf serum (GIBCO BRL), 1% of penicillin (100 U/mL)+streptomycin (100 μg/mL); • (3) 0.25% trypsin solution, purchased from Invitrogen Corp. and storaged at −20° C.; • (4) Phosphate buffer (PBS): NaCl 8 g, KCl 0.2 g, Na2HPO4 1.15 g and KH2PO4 0.2 g, dissolved in 1 L double-distilled water and autoclaved at 121° C. for 20 min, then storaged at 4° C.; • (5) MTT (AMRESCO) solution: 5 mg/ml in PBS; • (6) Formazan crystal dissolving solution: SDS 10 g, isobutanol 5 ml and concentrated hydrochloric acid 0.1 ml, dissolved in 100 ml of deionized double distilled water.
(§2) The inhibition effects of samples on the above-mentioned cell lines were detected by using MTT method. The specific procedures were as follows:
(§3) (1) Cell culture: (a) Storaged cells were taken out from the liquid nitrogen, thawed quickly in a 37° C. water bath, then aseptically transferred into 6 ml of cellular medium in a 10 ml centrifugal tube, and centrifuged at 1000 rpm for 5 min. The supernatant was discarded, then the precipitated cells were re-suspensed in 5-6 ml cellular media by pipetting and transferred into a flask in a 37° C. incubator for cell culture; (b) Next day, the flask was taken out from the incubator and the used medium was discarded, then the cells were incubated in 5-6 ml fresh medium in the 37° C. incubator; (c) On the third day, the flask was taken out from the incubator and the used medium was discarded, then 2-3 ml of PBS (pH7.4) was added into the flask with rocking for cleaning it and the used PBS was discarded. Such a cellular cleaning step was repeated once again. 3-5 drops of 0.25% trypsin solution were added into the flask with sloshing, thus well-distributed in it. The flask was capped and placed in a 37° C. incubator for about 3 min, and the separation of cells from the flask wall was observed under the microscope. […]
(§4) (4) Cells in a logarithmic growth stage were trypsinized and washed, then re-suspended in the medium containing 10% calf serum. The number of living cells was counted in Trypan blue dye exclusion method and cell suspensions were adjusted into a density of 2×10^5 cell/ml. […]

[2] = tested on: PANC-1 (human pancreatic cancer cells); test: as above; type: cell-based; conditions: PANC-1, MTT, 48 h
Description: as §1, §2, §3, §4

[3] = tested on: H460 (human lung cancer cells); test: as above; type: cell-based; conditions: NCI-H460, 48 h
Description: as §1, §2, §3, §4

[4] = tested on: SMMC-7721 (human hepatic cancer cells); test: as above; type: cell-based; conditions: SMMC-7721, MTT, 48 h
Description: as §1, §2, §3, §4

IL-2 = test: Production of IL-2 in mice bearing cancer (L1210), IL-2 dependent CTLL cell strain; type: in vivo, DBA/2 mice; conditions: 20 mg/kg, iv × 7, mice suffering from L1210 leukemia
Method: Each of 60 DBA/2 mice was inoculated subcutaneously with 1×10^4 L1210 leukemia cells of mice. Next day, the mice were grouped randomly into 6 groups (10 mice per group): Lentinan 20 mg/kg, the injection of the invention (6.25 ml/kg, 12.5 ml/kg and 25 ml/kg), solvent control and NS control. Animals were administered, i.v., for 7 days, then sacrificed. Spleens were picked up in aseptic condition. Splenocytes were prepared and adjusted into 1×10^7/ml. To each well of a 24 well plate were added splenocytes cells (2 ml) and Con A (5 μg/ml). After the plate was incubated in a 37° C. incubator under 5% CO2 for 24 h, the supernate was collected. The activity of IL-2 was determined in IL-2 dependent CTLL cell strain by using the method of ^3H-TdR incorporation.

[5] = tested on: splenocytes of mice bearing L1210 leukemia cells; test: Splenic lymphopoiesis in mice bearing L1210 leukemia cells; type: in vivo, DBA/2 mice; conditions: 20 mg/kg, iv × 7, mice bearing L1210
Method: Each of 60 DBA/2 mice was inoculated subcutaneously with 1×10^4 L1210 leukemia cells of mice. Next day, the mice were grouped randomly into 6 groups (10 mice per group): Lentinan 20 mg/kg, the injection of the invention (6.25 ml/kg, 12.5 ml/kg and 25 ml/kg), solvent control and NS control. Animals were administered, i.v., for 7 days, then sacrificed. Spleens were picked up in aseptic condition. Spleens were homogenized and splenocytes were counted and adjusted into 1×10^7/ml. Cells (100 μl/well) and medium (100 μl/well) were added into wells of a 96 well microplate in triplicate. The 96 well microplate was incubated in a 37° C. incubator under 5% CO2 for 48 h. Then, ^3H-TdR (0.5 μci/well) was added and the incubation was continued for 20 h. Cells were collected, and CPM values were determined and compared with control groups. […] Lentinan has also shown immuno-enhancement effect.

NK cells [6] = test: Activity of NK cells in mice bearing cancer (L1210); type: in vivo, DBA/2 mice; conditions: 20 mg/kg, iv × 7, mice bearing L1210
Method: Each of 60 DBA/2 mice was inoculated subcutaneously with 1×10^4 L1210 leukemia cells of mice. Next day, the mice were grouped randomly into 6 groups (10 mice per group): Lentinan 20 mg/kg (positive control), the injection of the invention (6.25 ml/kg, 12.5 ml/kg and 25 ml/kg), solvent control and NS control. Animals were administered, i.v., for 7 days, then sacrificed. Spleens were picked up in aseptic condition. Splenocytes were prepared and adjusted into 1×10^6/ml. The activity of NK cells was detected by using the inhibition on ^3H-TdR incorporation. To wells of a 96 well microplate were added splenocytes cells (effector cells) 100 μl/well, YAC-1 cells (target cells, 1×10^4 cells/ml) 100 μl/well and ^3H-TdR 0.5 μci/well, in triplicate. After being incubated in a 37° C. incubator under 5% CO2 for 24 h, cells were collected, and CPM values were determined. The specific percentage inhibition (Pi), indicating the activity of NK cells, was calculated according to the above formula.

Splenocytes = test: Splenic lymphopoiesis induced by ConA in mice in vitro (3H-TdR incorporation); type: cell-based, C57BL/6 mice; conditions: 100 μl
Method: Spleens were picked up from C57BL/6 mice in aseptic condition. Splenocytes were separated and the concentration of cells was adjusted to 1×10^7 cells/ml with RPMI 1640+15% FCS medium. The experiment groups were as follows: the injection of the invention in four concentrations, lentinan (positive control group) in four concentrations, corresponding solvent (blank control I) and medium (blank control II). 100 μl Cells, 100 μl solution of drug/control and 50 μl ConA were added in each well in triplicate. The 96 well microplate was incubated in a 37° C. incubator under 5% CO2 for 48 h. ^3H-TdR (0.5 μci/well) was added and the incubation was continued for 20 h. Cells were collected, and CPM values were determined in a liquid scintillation counter and compared with control groups. It is shown in the results (table 3) that the injection of the invention, as same as lentinan, has obviously facilitated the splenic lymphopoiesis in mice in vitro and the effect is linear dependent to the concentration.

NK cells [7] = test: Activity of natural killer cells (NK cells) in mice in vitro (inhibition on 3H-TdR incorporation, YAC-1 target cells); type: cell-based, C57BL/6 mice; conditions: 100 μl; for CPM (x ± SD): Splenocytes:YAC-1=100:1, 24 h
Method: Method: The activity of NK cells were detected by the inhibition on ^3H-TdR incorporation.
Spleens were picked up from C57BL/6 mice in aseptic condition. Splenocytes, as effector cells, were adjusted to 1×10^6 cells/ml. YAC-1 cells, target cells, which have been cultured for 24 h, were adjusted to 1×10^4 cells/ml. The cells were added into wells of a 96 well microplate (100 μl/well). The experiment groups were as follows: the injection of the invention in four concentrations, lentinan (positive control group) in four concentrations, corresponding solvent (blank control I) and medium (blank control II). To each well of a 96 well microplate were added cells (Splenocytes: YAC-1=100:1) (100 μl), test sample (100 μl) and ^3H-TdR 0.5 μci/well. After being incubated in a 37° C. incubator under 5% CO2 for 24 h, cells were collected, and CPM values were determined. The specific percentage inhibition (Pi), indicating the activity of NK cells, was calculated according to the formula: Pi=(1−CPMExp./CPMcont.)×100%

Molecule | IC50 [1] [µg/mL] | IC50 [2] [µg/mL] | IC50 [3] [µg/mL] | IC50 [4] [µg/mL] | CPM (x ± SD) (production of IL-2) (IL-2) [CPM] | CPM (x ± SD) [5] [CPM] | CPM (x ± SD) (NK cells [6]) [CPM] | Pi (%) (activity of NK cells) (NK cells [6]) | CPM (x ± SD) (Splenocytes; (1:1) dilution) [CPM] | CPM (x ± SD) (Splenocytes; (1:2) dilution) [CPM] | CPM (x ± SD) (Splenocytes; (1:4) dilution) [CPM] | CPM (x ± SD) (Splenocytes; (stock solution)) [CPM] | Pi % (specific percentage inhibition, activity of NK cells) (NK cells [7]; (1:1) dilution) [%] | CPM (x ± SD) (NK cells [7]; (1:1) dilution) [CPM] | Pi % (specific percentage inhibition, activity of NK cells) (NK cells [7]; (1:2) dilution) [%] | CPM (x ± SD) (NK cells [7]; (1:2) dilution) [CPM] | Pi % (specific percentage inhibition, activity of NK cells) (NK cells [7]; (1:4) dilution) [%] | CPM (x ± SD) (NK cells [7]; (1:4) dilution) [CPM] | Pi % (specific percentage inhibition, activity of NK cells) (NK cells [7]; (stock solution)) [%] | CPM (x ± SD) (NK cells [7]; (stock solution)) [CPM]
CC(=O)O[C@H]1C(=O)[C@@]2(C)[C@H]([C@H](OC(=O)c3ccccc3)[C@]3(O)C[C@H](OC(=O)[C@H](O)[C@@H](NC(=O)c4ccccc4)c4ccccc4)C(C)=C1C3(C)C)[C@]1(OC(C)=O)CO[C@@H]1C[C@@H]2O [Taxol] | 0.28 (≈ 0.328 µM) | 0.44 (≈ 0.515 µM) | 0.49 (≈ 0.574 µM) | 0.41 (≈ 0.48 µM) |  |  |  |  |  |  |  |  |  |  |  |  |  |  |  | 
Lentinan |  |  |  |  | 2750 ± 123 | 7410 ± 770 | 5660 ± 260 | 54.5 | 7700 ± 747 | 11025 ± 1133 | 11555 ± 1279 | 7420 ± 957 | 33.5 | 8130 ± 930 | 35.5 | 7892 ± 995 | 54.5 | 5544 ± 85 | 29.5 | 8625 ± 1135
